According to US6423749B1, “Pharmaceutical composition for injection based on paracetamol” (Aziende Chimiche Riunite Angelini Francesco A.C.R.A.F. …, priority 1998, dated 2002):

Assays:
[1] = cited from earlier work
[2] = Solubility of paracetamol, HPLC analysis of supernatant after centrifugation; format: physicochemical; conditions: stirred 2 hours at room temperature
Protocol: The PEG400 was added to the paracetamol at room temperature. This mixture was then kept stirring at room temperature for 2 hours.
4 ml of the above-mentioned suspension were centrifuged in an Eppendorf tube at 25° C. for 30 minutes at a speed of 7,000 rpm.
The absolute ethanol was added to the paracetamol at room temperature. This mixture was then kept stirring at room temperature for 2 hours.
4 ml of the above-mentioned suspension were centrifuged in an Eppendorf tube at 4° C. for 40 minutes at a speed of 7,000 rpm.

solubility of the paracetamol ([2]; in PEG-400, centrifuged at 25° C. for 30 minutes): 18-19% | solubility of the paracetamol ([2]; in absolute ethanol, centrifuged at 4° C. for 40 minutes): 9-10%
SMILES: CC(=O)Nc1ccc(O)cc1 [paracetamol]
amount of paracetamol dissolved ([1]; 30% propylene glycol, 40% PEG400 and 30% water, 20° C., WO 98/05314): about 200 mg/ml | solubility in water ([1]; water, The Merck Index, 12th edition): very slightly soluble
